Measurements taken from article PMC2700083, “A covalent peptide inhibitor of RGS4 identified in a focused one-bead, one compound library screen” (BMC Pharmacology, 2009).
Where a SMILES comes first, the peptide text is derived from it. Bridges are numbered along the chain shown (N, C = ends).

Tested on: RGS4 no Cys in C-terminus
Assay: FCPIA, RGS4 mutant with no Cys in C-terminus
Type: binding
Method: Since 5nd forms an irreversible, DTT-sensitive bond with RGS, it was suspected that it binds covalently to a cysteine in the protein through a disulfide bridge. Indeed, removal of all 7 cysteines (termed the -7C mutant) from RGS4 greatly diminished 5nd activity (logIC50 of -3.24 ± 0.14 for -7C vs. -4.36 ± 0.02 for wild type) (Figure 5, Table 2).
Figure 5 Dose curves of 5nd on various RGS4 cysteine mutants. Various concentrations of 5nd were tested for disruption of the RGS4-Gαo interaction for C95A (5 nM), or […], C71A (5nM) or C148A (5nM) (B), A95C in the -7C (5nM), or A132C in the -7C (5nM) (C), A71C in the -7C (5nM), or A148C in the -7C (5nM) (D) or the mutant with no cysteines in the domain (20 nM) or the C-terminus (20 nM) (E) in the FCPIA (mean ± S.E.M., n ≥ 3).
Proteins were expressed, purified and labeled as described previously. The mutagenesis was done using the "QuickChange Multi Site-Directed Mutagenesis Kit" from Stratagene according to the manufacturer's protocol. The construct of RGS4 used in these studies is a maltose binding protein (MBP-) fusion protein of the RGS4 sequence from which the amphipathic N-terminal helix has been removed (i.e. MBP-RGS4Δ51N). For simplicity in the text, this will be referred to as RGS4. […]

## CC(C)C[C@@H]1NC(=O)CNC(=O)[C@H](CCCCN)NC(=O)[C@@H](NC(=O)[C@H](Cc2c[nH]c3ccccc23)NC(=O)[C@@H](N)Cc2ccc(O)cc2)CSSC[C@@H](C(=O)N[C@@H](CCCCN)C(N)=O)NC1=O [Peptide 5nd, Tyr-Trp-c [Cys-Lys-Gly-Leu-Cys]-Lys-NH2, S-S] (H-YWCKGLCK-NH2; disulfide 3-7)
  5nd logIC50: -4.39 ± 0.07 M
